Measurements: patent US20120302609A1, “Pyrazolines for the Modulation of PKM2” (Dynamix Pharmaceuticals LTD., priority 2011, published 2012)
pIC50: −log10 of the molar value.

Tests used:
PKM2, human recombinant = target: T1, PKM2, human recombinant (Homo sapiens, UniProt P14618); assay: PKM2 enzymatic activity assay (Kinase-Glo Plus luminescence); type: biochemical; conditions: for AC50: 0.1 nM PKM2, 0.1 mM ADP, 0.5 mM PEP, 1 hour, room temperature, read-out: AC50 group; for Emax: 1 h, maximum percent activity, luminescence without compound = 0% activity, read-out: Max activity Group;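 on Max activity Group: percent increase over no-compound signal after subtracting the no-PKM2 background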
T1 construct: purchased BPS 50295
Outline: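 Activation assay: 0.1 nM recombinant human PKM2 with 0.1 mM ADP and 0.5 mM PEP in imidazole buffer pH 7.2, 1 hour at room temperature, in duplicate; ATP produced read by Kinase-Glo Plus luminescence. % activity relative to no-compound and no-enzyme wells; AC50 as half-maximal activation from sigmoidal fit; FBP 0.5 mM positive control.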

[1] = test system: A549 (Non-small cell lung carcinoma cell line); assay: Cell proliferation, Assay Protocol I (CellTiter-Glo); type: cell-based; conditions: Homo sapiens
Method: Growth inhibitory activity against the human tumor cell lines was determined using Promega's CellTiter-Glo® assay. The cell lines of interest were placed in a 96-well microculture plate (Costar® white, flat bottom #3917) in a total volume of 90 μL/well. After 24 hours of incubation in a humidified incubator at 37° C. with 5% CO2 and 95% air, 10 μL of serially diluted test compounds in growth medium were added to each well. After 96 total hours of culture in a CO2 incubator, the plated cells and CellTiter-Glo® (Promega # G7571) reagents were brought to room temperature to equilibrate for 30 minutes. 100 μL of CellTiter-Glo® reagent was added to each well. The plate was shaken for 2 minutes and then left to equilibrate for 10 minutes before reading luminescence on the Tecan GENios microplate reader.
Percent inhibition of cell growth was calculated relative to untreated control wells. All tests were performed in duplicate for each concentration level. The IC50 value for the test compounds was estimated using Prism 3.03 by curve-fitting the data.

BT-549 (breast) = assay: Cell proliferation assay (CellTiter-Glo Luminescent); type: cell-based; conditions: Homo sapiens, Complete media
H1299 (lung) = assay: as above; type: cell-based, human; conditions: 96 hr
Method: 1. Cells were grown according to the ATCC conditions. 2. Cell feeding (passaging) was timed such that the cells were in exponential growth phase at the time of the assay.
3. On day 1, H1299 cells were counted. Cell numbers were adjusted to the desired cell concentration in Media 1: RPMI 1640 Invitrogen 11879020 (that contained no glucose or pyruvate) with 10% FBS, and 1 mM D-Glucose (4 μl of 2.5 M D-glucose G8769 was added in preparing 10 ml RPMI media with 1 mM glucose). A 200 μl of H1299 cell suspension was added to appropriate wells in the 96-well plates, and incubated at 37° C. in the CO2 cell incubator under normal growing conditions for overnight. 4. On day 2, a 100 mM stock concentration of test compounds in 100% DMSO was prepared and serially diluted with 100% DMSO to 33.33 mM, 11.11 mM, and 3.7 mM. A 1:1000 dilution was made to each concentration in media 1 (yielding 0.1% final DMSO concentration). The media was aspirated completely from the cell plate. Each 100 μl of the following solutions (100 μM, 33.33 μM, 11.11 μM, and 3.7 μM) was added to the cells. DMSO in a final concentration of 0.1%, and media without DMSO, were added to the cells and used as a negative control. Empty wells around the experimental wells were filled with PBS. The plate was sealed with parafilm to reduce evaporation. 5. The plate was incubated under normal conditions (5% CO2, and 95% air), for 96 hours at 37° C. 6. On day 6 (after 96 hr incubation), the plate was equilibrated to room temperature for approximately 30 minutes. A 100 μl of CellTiter-Glo Reagent was added in each well of the plate. Contents were mixed for 2 minutes on an orbital shaker to induce cell lysis. The plate was incubated at room temperature for 10 minutes to stabilize luminescent signal. Luminescence was recorded with Flexstation 3.
Unless noted otherwise, proliferation of control or compound treated H1299 cells was measured using CellTiter-Glo Luminescent assay following 96 hr incubation of the cells with and without test compounds. The AC50 values, shown in Table 3, were coded according to follows: A: <3 μM; B: 3-10 μM; C: 10-20 μM; or D: >20 μM.

[2] = HT-29 xenograft mouse model, safety (body weight, observations); type: in vivo
Method: This example illustrates the efficacy and safety of a compound according to embodiments of the present invention, i.e., Compound 1A, using a HT-29 xenograft mouse model (a colorectal cancer model).
All the procedures related to animal handling, care, and the treatment in this study were performed according to approved guidelines a following the guidance of the Association for Assessment and Accreditation of Laboratory Animal Care (AAALAC). At the time of routine monitoring, the animals were checked for any effects of tumor growth and treatments on normal behavior such as mobility, food and water consumption (by looking only), body weight gain/loss (body weights were measured thrice weekly), eye/hair matting and any other abnormal effect. Death and observed clinical signs were recorded on the basis of the numbers of animals within each subset.
• a. Blood samples were collected after the 1st dose and the 23rd dose. Collected blood samples from 2 animals in each group at the designated timepoints post dose. The detailed timepoints are as below: • For the groups with QD dosing schedule: 1, 4, 8 and 24 hr post dose. • For the groups with Q2D dosing schedule: 1, 8, 24 and 48 hr post dose. • b. 20 μl blood was collected via tail vein in EDTA-2K tube (0.5 ml tube containing 0.4 μl 15% EDTA-2K. 60u1 double distilled water was added into the tube and mixed well.

[3] = Homo sapiens, NCI-H1299, 1 mM glucose

T1 sequence (P14618 whole entry): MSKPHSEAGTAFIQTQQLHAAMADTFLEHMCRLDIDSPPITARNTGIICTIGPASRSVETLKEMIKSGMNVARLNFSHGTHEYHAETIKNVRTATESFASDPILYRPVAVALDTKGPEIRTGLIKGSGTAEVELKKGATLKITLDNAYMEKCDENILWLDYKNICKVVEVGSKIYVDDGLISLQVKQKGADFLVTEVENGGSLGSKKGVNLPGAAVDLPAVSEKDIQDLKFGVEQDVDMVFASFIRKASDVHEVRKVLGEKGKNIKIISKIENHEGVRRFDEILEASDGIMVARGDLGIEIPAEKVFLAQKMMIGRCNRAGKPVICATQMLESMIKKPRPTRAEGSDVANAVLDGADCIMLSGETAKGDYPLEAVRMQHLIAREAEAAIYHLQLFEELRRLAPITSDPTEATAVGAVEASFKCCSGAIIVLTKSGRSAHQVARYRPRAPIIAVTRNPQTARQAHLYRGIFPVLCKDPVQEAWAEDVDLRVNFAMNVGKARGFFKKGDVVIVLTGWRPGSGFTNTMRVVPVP

Compound	AC50 (PKM2, human recombinant) [µM]	Emax (PKM2, human recombinant) [%]	pIC50 [1]	AC50 (BT-549 (breast); Assay duration: 72 hours, Readout: CellTiter Glo) [µM]	AC50 (H1299 (lung); [3]) [µM]	body weight loss ([2]; all the treatment groups (100-400 mg/kg i.p.))	in vivo safety profile ([2]; highest dosage level 400 mg/kg QD)	AC50 (BT-549 (breast); 96 hr, CellTiter-Glo) [µM]	AC50 (H1299 (lung); 5 mM glucose) [µM]	AC50 (H1299 (lung); Complete media) [µM]
CCS(=O)(=O)Nc1ccc(C2=NN(C(C)=O)C(c3ccc(OC)cc3)C2)cc1 (racemic) [Compound 1A, N-(4-(1-acetyl-5-(4-methoxyphenyl)-4,5-dihydro-1H-pyrazol-3-yl)phenyl)ethanesulfonamide]	≤ 1	130 to 200	> 4.40	> 20	10 to 20	No significant body weight loss	good in vivo safety profile			
COc1ccc([C@@H]2CC(c3ccc(NS(=O)(=O)c4ccc(F)cc4)cc3)=NN2C(C)=O)cc1 [Compound 13A, (S)—N-(4-(1-acetyl-5-(4-methoxyphenyl)-4,5-dihydro-1H-pyrazol-3-yl)phenyl)-4-fluorobenzenesulfonamide]	≤ 1	130 to 200			10 to 20			10 to 20	10 to 20	10 to 20
